The test relates to HeLa cells. The test is described as follows: S phase checkpoint western blot analysis. The class given is cell-based, human. The conditions noted are these: SDS-PAGE and western blot. The protocol:
FIG. 15. […] HeLa cells were incubated in the presence of granaticin A or carrier control (DMSO) for the indicated times and whole cell extracts were subjected to SDS-PAGE and western blot analysis. Asyn=asynchronously growing HeLa cells. HU=HeLa cells exposed to hydroxyurea for the indicated time. HU was used as a control for DNA damaging agent that is known to […] the DNA damage checkpoint response. Again, we observed that Mcm2 mobility is shifted in the cells treated with granaticin A. MCM2 mobility is not affected by HU. Activation of the DNA damage/replication checkpoint correlates with ATM/ATR dependent phosphorylation of Chk1 at Ser345.
On the technique in general: Immunoblotting shows a protein as a band on a membrane.

Regarding `NC(=O)NO` [HU, hydroxyurea, reference compound], the Mcm2 mobility entry was “not affected”.

The record behind these values is US20210283099A1, “CDC7 KINASE INHIBITORS AND USES THEREOF” (SLOAN-KETTERING INSTITUTE FOR CANCER RESEARCH, priority 2010, published 2021).
